The NIST ThermoML archive (doi:10.1016/j.jct.2006.05.003)

Key:
[1] = 101 kPa, Liquid
[2] = refractive index (Na D-line) (dimensionless); conditions: 101.33 kPa, Liquid, Standard Abbe refractometry
[3] = refractive index (Na D-line) (dimensionless); xn = mol fraction of the nth substance listed; conditions: 101 kPa, Liquid, Standard Abbe refractometry
[4] = xn = mol fraction of the nth substance listed; conditions: 101 kPa, Liquid

CC(C)(C)Cl [2-chloro-2-methylpropane]
Conditions | mass density, [1] [kg/m3] | refractive index, [2]
298.15 K | 836.45 | 1.38224
313.15 K | 818.31 | 1.37314

CC(C)CCl [1-chloro-2-methylpropane]
Conditions | mass density, [1] [kg/m3] | refractive index, [2]
298.15 K | 871.13 | 1.39528
313.15 K | 853.51 | 1.38686

CC(C)(C)Cl [2-chloro-2-methylpropane] + C1COCCO1
Conditions | mass density, [4] [kg/m3] | refractive index, [3]
298.15 K, x2 = 0 | 836.45 | 1.38224
298.15 K, x2 = 0.0458 | 844.01 | 1.38393
298.15 K, x2 = 0.1594 | 862.91 | 1.38814
298.15 K, x2 = 0.2576 | 879.78 | 1.39182
298.15 K, x2 = 0.3925 | 904.15 | 1.39689
298.15 K, x2 = 0.4632 | 917.47 | 1.39956
298.15 K, x2 = 0.5569 | 935.61 | 1.40312
298.15 K, x2 = 0.6611 | 956.29 | 1.40709
298.15 K, x2 = 0.7458 | 973.39 | 1.41033
298.15 K, x2 = 0.8395 | 992.69 | 1.4139
298.15 K, x2 = 0.9222 | 1010.32 | 1.41703
298.15 K, x2 = 0.9639 | 1019.57 | 1.41861
313.15 K, x2 = 0 | 818.31 | 1.37314
313.15 K, x2 = 0.0485 | 826.29 | 1.37502
313.15 K, x2 = 0.0903 | 833.3 | 1.37667
313.15 K, x2 = 0.2192 | 855.58 | 1.38175
313.15 K, x2 = 0.2827 | 866.86 | 1.38423
313.15 K, x2 = 0.3966 | 887.59 | 1.3888
313.15 K, x2 = 0.5029 | 907.54 | 1.39301
313.15 K, x2 = 0.6039 | 927.14 | 1.39702
313.15 K, x2 = 0.7025 | 946.96 | 1.40092
313.15 K, x2 = 0.8138 | 970.21 | 1.40529
313.15 K, x2 = 0.8959 | 987.89 | 1.4085
313.15 K, x2 = 0.9612 | 1002.17 | 1.41105

C1COCCO1 [1,4-dioxane] + CC(C)(C)Cl
x1 = 1
Conditions | mass density, [4] [kg/m3] | refractive index, [3]
298.15 K | 1027.87 | 1.41995
313.15 K | 1010.69 | 1.41264

C1COCCO1 [1,4-dioxane] + CCC(C)Cl
x1 = 1
Conditions | mass density, [4] [kg/m3] | refractive index, [3]
298.15 K | 1027.87 | 1.41995
313.15 K | 1010.69 | 1.41264

CCCCCl [1-chlorobutane]
Conditions | mass density, [1] [kg/m3] | refractive index, [2]
298.15 K | 880.69 | 1.3995
313.15 K | 863.82 | 1.39133

C1COCCO1 [1,4-dioxane] + CC(C)CCl
x1 = 1
Conditions | mass density, [4] [kg/m3] | refractive index, [3]
298.15 K | 1027.87 | 1.41995
313.15 K | 1010.69 | 1.41264

CCCCl [1-chloropropane] + C1COCCO1
Conditions | mass density, [4] [kg/m3] | refractive index, [3]
298.15 K, x2 = 0 | 884.26 | 1.3856
298.15 K, x2 = 0.1027 | 898.64 | 1.38919
298.15 K, x2 = 0.2077 | 913.41 | 1.39281
298.15 K, x2 = 0.3029 | 926.89 | 1.39609
298.15 K, x2 = 0.4034 | 941.19 | 1.39957
298.15 K, x2 = 0.506 | 955.87 | 1.40308
298.15 K, x2 = 0.6062 | 970.28 | 1.40651
298.15 K, x2 = 0.706 | 984.73 | 1.4099
298.15 K, x2 = 0.8081 | 999.6 | 1.41336
298.15 K, x2 = 0.9059 | 1013.96 | 1.41673
298.15 K, x2 = 0.9486 | 1020.26 | 1.41818
313.15 K, x2 = 0 | 865.14 | 1.37673
313.15 K, x2 = 0.1009 | 879.74 | 1.38047
313.15 K, x2 = 0.2026 | 894.27 | 1.38432
313.15 K, x2 = 0.3067 | 909.2 | 1.38812
313.15 K, x2 = 0.4061 | 923.53 | 1.39169
313.15 K, x2 = 0.5056 | 937.97 | 1.39523
313.15 K, x2 = 0.6044 | 952.38 | 1.39872
313.15 K, x2 = 0.7114 | 968.04 | 1.40252
313.15 K, x2 = 0.8026 | 981.42 | 1.40576
313.15 K, x2 = 0.9011 | 995.98 | 1.40922
313.15 K, x2 = 0.951 | 1003.38 | 1.41097

CCCCCl [1-chlorobutane] + C1COCCO1
Conditions | mass density, [4] [kg/m3] | refractive index, [3]
298.15 K, x2 = 0 | 880.69 | 1.3995
298.15 K, x2 = 0.0418 | 885.54 | 1.40011
298.15 K, x2 = 0.1141 | 894.14 | 1.40119
298.15 K, x2 = 0.2426 | 910.06 | 1.40328
298.15 K, x2 = 0.3358 | 922.21 | 1.40491
298.15 K, x2 = 0.4518 | 938.11 | 1.40709
298.15 K, x2 = 0.5509 | 952.44 | 1.40908
298.15 K, x2 = 0.5914 | 958.52 | 1.40994
298.15 K, x2 = 0.738 | 981.64 | 1.41323
298.15 K, x2 = 0.8235 | 995.99 | 1.41529
298.15 K, x2 = 0.9104 | 1011.29 | 1.41752
298.15 K, x2 = 0.987 | 1025.41 | 1.4196
313.15 K, x2 = 0 | 863.82 | 1.39133
313.15 K, x2 = 0.0344 | 867.83 | 1.39188
313.15 K, x2 = 0.117 | 877.61 | 1.39321
313.15 K, x2 = 0.2279 | 891.26 | 1.39506
313.15 K, x2 = 0.3499 | 907.15 | 1.39732
313.15 K, x2 = 0.4442 | 920.15 | 1.39917
313.15 K, x2 = 0.55 | 935.51 | 1.40138
313.15 K, x2 = 0.645 | 950.02 | 1.40351
313.15 K, x2 = 0.7456 | 966.15 | 1.40591
313.15 K, x2 = 0.8238 | 979.22 | 1.40786
313.15 K, x2 = 0.9143 | 995.01 | 1.41024
313.15 K, x2 = 0.9636 | 1003.94 | 1.41159

CCC(C)Cl (stereo not given) [2-chlorobutane] + C1COCCO1
Conditions | mass density, [4] [kg/m3] | refractive index, [3]
298.15 K, x2 = 0 | 867.4 | 1.39404
298.15 K, x2 = 0.0417 | 872.75 | 1.3949
298.15 K, x2 = 0.1061 | 881.2 | 1.3963
298.15 K, x2 = 0.2514 | 901.2 | 1.3996
298.15 K, x2 = 0.3493 | 915.42 | 1.40193
298.15 K, x2 = 0.4771 | 934.94 | 1.40512
298.15 K, x2 = 0.5563 | 947.61 | 1.40721
298.15 K, x2 = 0.6462 | 962.58 | 1.40961
298.15 K, x2 = 0.7343 | 977.89 | 1.41208
298.15 K, x2 = 0.8244 | 994.21 | 1.41466
298.15 K, x2 = 0.9112 | 1010.56 | 1.41725
298.15 K, x2 = 0.9891 | 1025.72 | 1.41962
313.15 K, x2 = 0 | 850.13 | 1.38573
313.15 K, x2 = 0.0475 | 856.2 | 1.38674
313.15 K, x2 = 0.1318 | 867.4 | 1.38865
313.15 K, x2 = 0.239 | 882.36 | 1.3912
313.15 K, x2 = 0.3413 | 897.3 | 1.39378
313.15 K, x2 = 0.4574 | 915.03 | 1.39683
313.15 K, x2 = 0.5546 | 930.53 | 1.39949
313.15 K, x2 = 0.6429 | 945.17 | 1.40195
313.15 K, x2 = 0.7326 | 960.65 | 1.40449
313.15 K, x2 = 0.8209 | 976.52 | 1.40709
313.15 K, x2 = 0.9121 | 993.58 | 1.40985
313.15 K, x2 = 0.9525 | 1001.37 | 1.41113

CC(C)CCl [1-chloro-2-methylpropane] + C1COCCO1
Conditions | mass density, [4] [kg/m3] | refractive index, [3]
298.15 K, x2 = 0 | 871.13 | 1.39528
298.15 K, x2 = 0.045 | 876.79 | 1.39616
298.15 K, x2 = 0.1196 | 886.36 | 1.39763
298.15 K, x2 = 0.2433 | 902.87 | 1.40025
298.15 K, x2 = 0.3412 | 916.58 | 1.40243
298.15 K, x2 = 0.4407 | 931.19 | 1.40471
298.15 K, x2 = 0.5447 | 947.22 | 1.40725
298.15 K, x2 = 0.6463 | 963.67 | 1.40983
298.15 K, x2 = 0.737 | 979.04 | 1.4123
298.15 K, x2 = 0.8305 | 995.63 | 1.41492
298.15 K, x2 = 0.9157 | 1011.45 | 1.41742
298.15 K, x2 = 0.9515 | 1018.31 | 1.41849
313.15 K, x2 = 0 | 853.51 | 1.38686
313.15 K, x2 = 0.0474 | 859.42 | 1.38783
313.15 K, x2 = 0.1492 | 872.58 | 1.39001
313.15 K, x2 = 0.2654 | 888.36 | 1.39259
313.15 K, x2 = 0.3687 | 903.12 | 1.39504
313.15 K, x2 = 0.4565 | 916.21 | 1.39721
313.15 K, x2 = 0.5541 | 931.39 | 1.39973
313.15 K, x2 = 0.6426 | 945.76 | 1.40211
313.15 K, x2 = 0.7423 | 962.69 | 1.40489
313.15 K, x2 = 0.8326 | 978.76 | 1.40752
313.15 K, x2 = 0.9112 | 993.38 | 1.40987
313.15 K, x2 = 0.9606 | 1002.9 | 1.41139

C1COCCO1 [1,4-dioxane]
Conditions | mass density, [1] [kg/m3] | refractive index, [2]
298.15 K | 1027.87 | 1.41995
313.15 K | 1010.69 | 1.41264

C1COCCO1 [1,4-dioxane] + CCCCl
x1 = 1
Conditions | mass density, [4] [kg/m3] | refractive index, [3]
298.15 K | 1027.87 | 1.41995
313.15 K | 1010.69 | 1.41264

CCCCl [1-chloropropane]
Conditions | mass density, [1] [kg/m3] | refractive index, [2]
298.15 K | 884.26 | 1.3856
313.15 K | 865.14 | 1.37673

C1COCCO1 [1,4-dioxane] + CCCCCl
x1 = 1
Conditions | mass density, [4] [kg/m3] | refractive index, [3]
298.15 K | 1027.87 | 1.41995
313.15 K | 1010.69 | 1.41264

CCC(C)Cl (stereo not given) [2-chlorobutane]
Conditions | mass density, [1] [kg/m3] | refractive index, [2]
298.15 K | 867.4 | 1.39404
313.15 K | 850.13 | 1.38573
